Reference: US20240018157A1, “CYCLIC COMPOUNDS AND METHODS OF USING SAME” (Schrödinger, Inc., priority 2019, published 2024)

Key:
[1] = target: T1, full-length MALT1 protein His-MALT1(1-824) (Homo sapiens (Human), UniProt Q9UDY8); assay: MALT1 protease assay, Assay 1 (2 nM MALT1, Ac-LRSR-AMC substrate); assay type: biochemical; details: 2 nM MALT1, 50 μM Ac-LRSR-AMC, 2 h pre-incubation, 8 hr incubation at RT
Method: MALT1 protease activity was assessed in an in vitro assay using a tetrapeptide as substrate and full-length MALT1 protein His-MALT1(1-824) purified from baculovirus-infected insect cells.
The final assay buffer includes 1 nM (Assay 2) or 2 nM (Assay 1) of MALT1 full-length protein, 50 μM Ac-LRSR-AMC substrate, 50 mM Tris pH 7.5, 600 mM Sodium Citrate, 1 mM DTT, 1 mM EDTA, and 0.05% BSA in 384-well plate format using black microtiter square well plates (Optiplate 384-F, Perkin Elmer).
Test compounds were dissolved in 100% DMSO at stock of 10 mM, with final DMSO concentration 0.1%. Test compounds were pre-incubated with MALT1 protein for 2 h at room temperature. Substrate was added after the pre-incubation and fluorescence signal was measured using Envision at excitation 355 nm and emission 460 nm after 8 hr incubation at RT. Increase in the assay signal was linear over this period and proportional with increase in the enzyme content.
The fluorescence units were transformed to percentage of remaining activity by using the high control (HC, median of fluorescence signal from wells containing MALT1 protein, substrate, and DMSO) and low control (LC, median of fluorescence signal from wells with substrate only) with the formula below: […]
IC50 and Hill coefficient were obtained using Graph Pad Prism (Graph Pad software, Inc, USA) with non-linear regression analysis.

[2] = system: IL10 secretion, OCI-LY10 cells; assay: Human IL10 secretion assay, Assay 1 (HTRF); assay type: cell-based; details: 24 h incubation, read-out: IL-10 Secretion IC50 [nM] Assay 1
How it was run: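 OCI-LY10 cells (3×10^5/well, IMEM with 20% FBS) were treated with 3-fold serial compound dilutions from a 10 mM stock, 0.1% DMSO final, for 24 h. Secreted IL10 in medium was quantified by HTRF, normalised to DMSO-treated and no-cell controls, and IC50 (nM) derived by 4-parameter fit.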

[3] = target: T1, full-length MALT1 protein His-MALT1(1-824); assay: MALT1 protease assay, Assay 2 (1 nM MALT1, Ac-LRSR-AMC substrate); assay type: biochemical; details: 1 nM MALT1, 50 μM Ac-LRSR-AMC, 2 h pre-incubation, 8 hr incubation at RT
How it was run: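 His-MALT1(1-824) from baculovirus-infected insect cells at 1 nM, preincubated 2 h at RT with compound (0.1% DMSO), then 50 μM Ac-LRSR-AMC in 50 mM Tris pH 7.5, 600 mM sodium citrate, 1 mM DTT, 1 mM EDTA, 0.05% BSA. Fluorescence (ex 355/em 460 nm) after 8 h at RT, normalized to enzyme and substrate-only controls. IC50 and Hill coefficient by non-linear regression.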

T1 sequence (Q9UDY8 whole entry): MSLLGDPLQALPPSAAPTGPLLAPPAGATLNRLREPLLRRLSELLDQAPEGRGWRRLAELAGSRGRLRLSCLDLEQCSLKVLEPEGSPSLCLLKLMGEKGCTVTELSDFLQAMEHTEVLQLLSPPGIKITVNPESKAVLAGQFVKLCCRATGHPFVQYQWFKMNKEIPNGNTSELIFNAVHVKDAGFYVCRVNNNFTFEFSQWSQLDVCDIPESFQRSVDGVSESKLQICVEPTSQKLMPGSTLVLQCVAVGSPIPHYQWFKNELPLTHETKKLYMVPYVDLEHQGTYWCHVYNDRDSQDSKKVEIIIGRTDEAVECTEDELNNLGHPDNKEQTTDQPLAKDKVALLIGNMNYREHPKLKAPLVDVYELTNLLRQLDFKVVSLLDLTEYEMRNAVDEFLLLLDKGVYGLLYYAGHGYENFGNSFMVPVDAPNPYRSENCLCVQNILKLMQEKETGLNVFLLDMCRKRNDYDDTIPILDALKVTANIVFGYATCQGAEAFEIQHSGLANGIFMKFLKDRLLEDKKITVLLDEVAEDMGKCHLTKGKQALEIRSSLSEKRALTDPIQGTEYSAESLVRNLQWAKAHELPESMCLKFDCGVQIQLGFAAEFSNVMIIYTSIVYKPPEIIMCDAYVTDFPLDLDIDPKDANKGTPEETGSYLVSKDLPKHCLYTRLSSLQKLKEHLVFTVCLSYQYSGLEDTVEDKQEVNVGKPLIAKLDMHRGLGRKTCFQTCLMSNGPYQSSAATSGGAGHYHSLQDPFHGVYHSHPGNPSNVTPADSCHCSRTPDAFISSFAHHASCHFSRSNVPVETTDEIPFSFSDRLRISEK

Row | Structure (SMILES) | IC50 [1] [nM] | IC50 [2] [nM] | IC50 [3] [nM]
1 | Cc1cc2ncc3c(n2n1)C(C)(C)CCN3C(=O)Nc1cnc(-n2nccn2)c(Cl)c1 [compound 8, N-(5-chloro-6-(2H-1,2,3-triazol-2-yl)pyridin-3-yl)-2,9,9-trimethyl-8,9-dihydropyrazolo[1,5-a]pyrido[2,3-e]pyrimidine-6(7H)-carboxamide] | 10 to 100 | 100 to 1000 | 
2 | CC1(C)CCN(C(=O)Nc2cnc(-n3nccn3)c(Cl)c2)c2ccc3cc(Cl)nn3c21 [compound 9, 2-chloro-N-(5-chloro-6-(2H-1,2,3-triazol-2-yl)pyridin-3-yl)-9,9-dimethyl-8,9-dihydropyrazolo[1,5-a][1,5]naphthyridine-6(7H)-carboxamide] | 10 to 100 | ≥ 1000 | 
3 | Cn1cc(-c2ncc(NC(=O)N3C[C@@](C)(C(F)(F)F)c4c3cnc3cc(Cl)nn43)cc2Cl)cn1 [compound 20, (R)-2-chloro-N-(5-chloro-6-(1-methyl-1H-pyrazol-4-yl)pyridin-3-yl)-8-methyl-8-(trifluoromethyl)-7,8-dihydro-6H-pyrazolo[1,5-a]pyrrolo[2,3-e]pyrimidine-6-carboxamide] | 10 to 100 | 100 to 1000 | 
4 | Cn1cnc(-c2ncc(NC(=O)N3C[C@@](C)(C(F)(F)F)c4c3cnc3cc(Cl)nn43)cc2Cl)c1 [compound 28, (R)-2-chloro-N-(5-chloro-6-(1-methyl-1H-imidazol-4-yl)pyridin-3-yl)-8-methyl-8-(trifluoromethyl)-7,8-dihydro-6H-pyrazolo[1,5-a]pyrrolo[2,3-e]pyrimidine-6-carboxamide] | 10 to 100 |  | 
5 | Cc1cc(NC(=O)N2C[C@@](C)(C(F)(F)F)c3c2cnc2cc(Cl)nn32)cnc1-n1ccnn1 [compound 30, (R)-2-chloro-8-methyl-N-(5-methyl-6-(1H-1,2,3-triazol-1-yl)pyridin-3-yl)-8-(trifluoromethyl)-7,8-dihydro-6H-pyrazolo[1,5-a]pyrrolo[2,3-e]pyrimidine-6-carboxamide] | 10 to 100 |  | 

Now from value to compound:

Row | IC50 [1] [nM] | IC50 [2] [nM] | IC50 [3] [nM] | Structure (SMILES)
6 | 100 to 1000 |  | 100 to 1000 | C[C@@]1(C(F)(F)F)CN(C(=O)NC2CCC(F)(F)CC2)c2cnc3cc(Cl)nn3c21 [compound 37, (R)-2-chloro-N-(4,4-difluorocyclohexyl)-8-methyl-8-(trifluoromethyl)-7,8-dihydro-6H-pyrazolo[1,5-a]pyrrolo[2,3-e]pyrimidine-6-carboxamide]
7 | 10 to 100 | 100 to 1000 | 10 to 100 | C[C@@]1(C(F)(F)F)CN(C(=O)Nc2cnc(C#N)c(Cl)c2)c2cnc3cc(Cl)nn3c21 [compound 42, (R)-2-chloro-N-(5-chloro-6-cyanopyridin-3-yl)-8-methyl-8-(trifluoromethyl)-7,8-dihydro-6H-pyrazolo[1,5-a]pyrrolo[2,3-e]pyrimidine-6-carboxamide]
8 | 10 to 100 | 100 to 1000 |  | C[C@@]1(C(F)(F)F)CN(C(=O)Nc2cnc(CO)c(Cl)c2)c2cnc3cc(Cl)nn3c21 [compound 43, (R)-2-chloro-N-(5-chloro-6-(hydroxymethyl)pyridin-3-yl)-8-methyl-8-(trifluoromethyl)-7,8-dihydro-6H-pyrazolo[1,5-a]pyrrolo[2,3-e]pyrimidine-6-carboxamide]
9 | 10 to 100 |  |  | C[C@@]1(C(F)(F)F)CN(C(=O)Nc2cc(Cl)c(=O)n(C(F)F)c2)c2cnc3cc(Cl)nn3c21 [compound 50, (R)-2-chloro-N-(5-chloro-1-(difluoromethyl)-6-oxo-1,6-dihydropyridin-3-yl)-8-methyl-8-(trifluoromethyl)-7,8-dihydro-6H-pyrazolo[1,5-a]pyrrolo[2,3-e]pyrimidine-6-carboxamide]
10 | 10 to 100 |  |  | CNc1ncc(NC(=O)N2C[C@@](C)(C(F)(F)F)c3c2cnc2cc(Cl)nn32)cc1Cl [compound 51, (R)-2-chloro-N-(5-chloro-6-(methylamino)pyridin-3-yl)-8-methyl-8-(trifluoromethyl)-7,8-dihydro-6H-pyrazolo[1,5-a]pyrrolo[2,3-e]pyrimidine-6-carboxamide]
11 | < 10 | 10 to 100 |  | COc1nc(-n2nccn2)c(Cl)cc1NC(=O)N1C[C@@](C)(C(F)(F)F)c2c1cnc1cc(Cl)nn21 [compound 52, (R)-2-chloro-N-(5-chloro-2-methoxy-6-(2H-1,2,3-triazol-2-yl)pyridin-3-yl)-8-methyl-8-(trifluoromethyl)-7,8-dihydro-6H-pyrazolo[1,5-a]pyrrolo[2,3-e]pyrimidine-6-carboxamide]
